Source: ChEMBL document CHEMBL1201862, “PubChem BioAssay data set” (2004)
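Step 1: Grow cells in 96-well plates. Step 2: Expose to compound for 48 hours at 5 concentrations. Step 3: Interpolate endpoints linearly; if unreached, use highest concentration. GI50 is the concentration that inhibits growth by half.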 The source made the active and inactive calls. Rule as the data show it: active = GI50 up to about 1.1 µM and inactive = higher.

Columns and labels:
Experiment in all cases: NCI tumour cell line growth inhibition, 48 h
SN12C = tested on: SN12C
IGROV-1 = tested on: IGROV-1
NCI/ADR-RES = tested on: NCI/ADR-RES
NCI-H226 = tested on: NCI-H226
U-251 = tested on: U-251
HCT-15 = tested on: HCT-15
Malme-3M = tested on: Malme-3M
SF-295 = tested on: SF-295
HL-60 = tested on: HL-60
SK-MEL-5 = tested on: SK-MEL-5
MCF7 = tested on: MCF7
UACC-62 = tested on: UACC-62
LOX IMVI = tested on: LOX IMVI
TK-10 = tested on: TK-10
COLO 205 = tested on: COLO 205
SK-OV-3 = tested on: SK-OV-3
HCC 2998 = tested on: HCC 2998
HT-29 = tested on: HT-29
SNB-75 = tested on: SNB-75
786-0 = tested on: 786-0

SMILES | GI50 (SN12C) | GI50 (IGROV-1) | GI50 (NCI/ADR-RES) | GI50 (NCI-H226) | GI50 (U-251) | GI50 (HCT-15) | GI50 (Malme-3M) | GI50 (SF-295) | GI50 (HL-60) | GI50 (SK-MEL-5) | GI50 (MCF7) | GI50 (UACC-62) | GI50 (LOX IMVI) | GI50 (TK-10) | GI50 (COLO 205) | GI50 (SK-OV-3) | GI50 (HCC 2998) | GI50 (HT-29) | GI50 (SNB-75) | GI50 (786-0)
CC(C)(C)OC(=O)NC(Cc1ccccc1)C(=O)N[C@H]1c2ccsc2/C(=N/O)[C@H]1O (stereo partly drawn) | > 100 µM (inactive) | > 100 µM (inactive) | > 100 µM (inactive) | > 100 µM (inactive) | > 100 µM (inactive) | > 100 µM | > 100 µM (inactive) | > 100 µM (inactive) | 86.1 µM (inactive) | > 100 µM (inactive) | > 100 µM (inactive) | > 100 µM (inactive) | > 100 µM (inactive) | > 100 µM (inactive) | > 100 µM (inactive) | > 100 µM (inactive) | > 100 µM (inactive) | > 100 µM (inactive) | – | –
COc1cc(C2c3cc4c(cc3[C@@H](Oc3ccc(F)cc3)C3COC(=O)[C@H]23)OCO4)cc(OC)c1O (stereo partly drawn) | 3.19 µM (inactive) | 1.32 µM (inactive) | 0.22 µM (active) | 0.417 µM (active) | 0.365 µM (active) | 0.364 µM | 0.653 µM (active) | 0.807 µM (active) | 0.341 µM (active) | 0.527 µM (active) | 0.434 µM (active) | 0.518 µM (active) | 0.578 µM (active) | – | 1.75 µM (inactive) | – | 2.28 µM (inactive) | 0.284 µM (active) | 0.287 µM (active) | –
CC(C)C(=O)Nc1cc(C(F)(F)F)ccc1[N+](=O)[O-] | > 100 µM (inactive) | > 100 µM (inactive) | > 100 µM (inactive) | > 100 µM (inactive) | > 100 µM (inactive) | > 100 µM | 68.5 µM (inactive) | > 100 µM (inactive) | 94 µM (inactive) | > 100 µM (inactive) | > 100 µM (inactive) | > 100 µM (inactive) | > 100 µM (inactive) | > 100 µM (inactive) | > 100 µM (inactive) | > 100 µM (inactive) | > 100 µM (inactive) | > 100 µM (inactive) | – | > 100 µM (inactive)
COc1cc(OC)nc(-n2c(N)c(C(=O)O)c3ccc([N+](=O)[O-])cc3c2=O)n1 | > 100 µM (inactive) | 67.8 µM (inactive) | > 100 µM (inactive) | > 100 µM (inactive) | > 100 µM (inactive) | > 100 µM | > 100 µM (inactive) | > 100 µM (inactive) | 60.5 µM (inactive) | > 100 µM (inactive) | > 100 µM (inactive) | > 100 µM (inactive) | > 100 µM (inactive) | – | > 100 µM (inactive) | > 100 µM (inactive) | > 100 µM (inactive) | > 100 µM (inactive) | > 100 µM (inactive) | > 100 µM (inactive)
CCOC(=O)C(NC(=O)c1cccc(Cl)c1)(Nc1ccc(S(=O)(=O)Nc2cc(C)on2)cc1)C(F)(F)F (stereo not drawn) | > 100 µM (inactive) | > 100 µM (inactive) | > 100 µM (inactive) | > 100 µM (inactive) | > 100 µM (inactive) | > 100 µM | > 100 µM (inactive) | 14.4 µM (inactive) | > 100 µM (inactive) | > 100 µM (inactive) | > 100 µM (inactive) | – | > 100 µM (inactive) | > 100 µM (inactive) | > 100 µM (inactive) | > 100 µM (inactive) | > 100 µM (inactive) | > 100 µM (inactive) | > 100 µM (inactive) | > 100 µM (inactive)
O=C(CC1=NCCN1)c1ccccc1 | > 750 µM (inactive) | > 750 µM (inactive) | > 750 µM (inactive) | > 536 µM (inactive) | > 750 µM (inactive) | > 750 µM | > 617 µM (inactive) | > 750 µM (inactive) | 455 µM (inactive) | > 750 µM (inactive) | > 750 µM (inactive) | > 750 µM (inactive) | > 750 µM (inactive) | – | > 750 µM (inactive) | > 750 µM (inactive) | > 750 µM (inactive) | > 750 µM (inactive) | > 735 µM (inactive) | –
COC(=O)C1OC2(CCCC3CC32)O[C@H]1C(=O)OC (stereo partly drawn) | > 100 µM (inactive) | > 100 µM (inactive) | > 100 µM (inactive) | > 100 µM (inactive) | > 100 µM (inactive) | > 100 µM | > 100 µM (inactive) | > 100 µM (inactive) | > 100 µM (inactive) | – | > 100 µM (inactive) | > 100 µM (inactive) | > 100 µM (inactive) | > 100 µM (inactive) | > 100 µM (inactive) | > 100 µM (inactive) | > 100 µM (inactive) | > 100 µM (inactive) | > 100 µM (inactive) | > 100 µM (inactive)
Cc1ccc(/C=C2\Cc3c(C)cc(C)cc3C2=O)c(C(=O)O)c1 | 67.5 µM (inactive) | 79.8 µM (inactive) | 90.6 µM (inactive) | 23.8 µM (inactive) | 29.9 µM (inactive) | 36.3 µM | 72.3 µM (inactive) | 41.9 µM (inactive) | 23.1 µM (inactive) | 25.8 µM (inactive) | 56.2 µM (inactive) | 41.1 µM (inactive) | 22.6 µM (inactive) | 83.4 µM (inactive) | 34.8 µM (inactive) | – | 38.4 µM (inactive) | 45.3 µM (inactive) | 58.9 µM (inactive) | 61.5 µM (inactive)
CN(C)CCNC(=O)c1cccc2cc3cc(O)ccc3nc12 | 1.1 µM (active) | 1.37 µM (inactive) | 1.48 µM (inactive) | 0.621 µM (active) | 1.36 µM (inactive) | 1.23 µM | 1.22 µM (inactive) | 1 µM (active) | 0.355 µM (active) | 1.23 µM (inactive) | 0.473 µM (active) | 1.33 µM (inactive) | 0.857 µM (active) | – | 0.897 µM (active) | 1.46 µM (inactive) | 2.2 µM (inactive) | 1.02 µM (active) | 1.93 µM (inactive) | –
CCOc1cc(C=O)ccc1O [ETHYL VANILLIN] | > 100 µM (inactive) | > 100 µM (inactive) | > 100 µM (inactive) | > 100 µM (inactive) | > 100 µM (inactive) | > 100 µM | > 100 µM (inactive) | > 100 µM (inactive) | > 100 µM (inactive) | > 100 µM (inactive) | > 100 µM (inactive) | – | > 100 µM (inactive) | > 100 µM (inactive) | > 100 µM (inactive) | – | > 100 µM (inactive) | > 100 µM (inactive) | 95.1 µM (inactive) | > 100 µM (inactive)
CCCCCCCCCCCCCCCCP(=O)([O-])OCC[N+](C)(C)C | 12.9 µM (inactive) | 1.56 µM (inactive) | 18.7 µM (inactive) | 23 µM (inactive) | 16.7 µM (inactive) | 6.56 µM | 21.3 µM (inactive) | 12.9 µM (inactive) | – | 16 µM (inactive) | 17.5 µM (inactive) | 13.9 µM (inactive) | 14.9 µM (inactive) | 1.5 µM (inactive) | 6.58 µM (inactive) | 7.4 µM (inactive) | 6.19 µM (inactive) | 12.7 µM (inactive) | 14.8 µM (inactive) | 7.46 µM (inactive)
